Source: patent US12673944B2, “Compounds having inhibitory activity against glucosylceramide synthase or pharmaceutically acceptable salt thereof, processes for preparing the same, and pharmaceutical compositions comprising the same” (YUHAN CORPORATION, priority 2019, dated 2026)

Legend:
[1] = target: T1, glucosylceramide synthase (GCS) (Homo sapiens, UniProt Q16739); assay: GCS enzyme inhibition assay (A549 cell lysate, NBD C6-ceramide, HPLC fluorescence); type: biochemical; conditions: inhibitory activity against GCS, 37° C., 90 minutes
T1 construct: The obtained supernatant was used; host or cells: A549 cells (lysate supernatant after sonication)
T1 sequence (Q16739 1-394): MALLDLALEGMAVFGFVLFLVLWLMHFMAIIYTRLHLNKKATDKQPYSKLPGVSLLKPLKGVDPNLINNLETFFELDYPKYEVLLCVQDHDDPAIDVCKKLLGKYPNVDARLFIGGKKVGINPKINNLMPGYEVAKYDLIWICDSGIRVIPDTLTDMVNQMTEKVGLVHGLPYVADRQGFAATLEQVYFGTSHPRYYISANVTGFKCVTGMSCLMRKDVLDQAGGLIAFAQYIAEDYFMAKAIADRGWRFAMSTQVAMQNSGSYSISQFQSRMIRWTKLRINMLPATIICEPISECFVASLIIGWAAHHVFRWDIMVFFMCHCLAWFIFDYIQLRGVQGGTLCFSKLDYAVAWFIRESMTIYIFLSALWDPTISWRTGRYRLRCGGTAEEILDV
How it was run: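 A549 cell lysate (50 mM HEPES pH 7.3) served as GCS source; reactions ran 90 min at 37° C, were stopped with chloroform/methanol and lipids extracted. Activity taken as GlcCer/(Cer+GlcCer) peak area, normalised between DMSO and ibiglustat controls.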

[2] = test system: GM1 production in Jurkat cells; assay: cells; type: cell-based; conditions: Homo sapiens, Jurkat, 72 h

| Structure (SMILES) | IC50 [1] [nM] | IC50 [2] [nM] |
| --- | --- | --- |
| Cc1cc(-c2ccc3c(c2)OCC(C)(C)C3NC(=O)O[C@@H]2CN3CCC2CC3)cc(C)c1OC(C)C (stereo partly drawn) [Example 263, (S)-quinuclidin-3-yl (7-(4-isopropoxy-3,5-dimethylphenyl)-3,3-dimethylchroman-4-yl)carbamate] | 1.44 | 4 |
| COc1cccc(-c2ccc3c(c2)OCCC3(C)NC(=O)O[C@@H]2CN3CCC2CC3)c1 (stereo partly drawn) [Example 299, (S)-quinuclidin-3-yl (7-(3-methoxyphenyl)-4-methylchroman-4-yl)carbamate] | 0.6 | 9.7 |
| O=C(NC1CCSc2cc(-c3cccc(Cl)c3)ccc21)O[C@@H]1CN2CCC1CC2 (stereo partly drawn) [Example 318, (S)-quinuclidin-3-yl (7-(3-chlorophenyl)thiochroman-4-yl)carbamate] | 1.29 | 27.2 |
| CC1(C)COc2cc(-c3cccnc3)ccc2C1NC(=O)O[C@@H]1CN2CCC1CC2 (stereo partly drawn) [Example 265, (S)-quinuclidin-3-yl (3,3-dimethyl-7-(pyridin-3-yl)chroman-4-yl)carbamate] | 2.03 | 38.7 |
| O=C(NC1CCOc2cc(-c3cccc4cnccc34)ccc21)O[C@@H]1CN2CCC1CC2 (stereo partly drawn) [Example 54, (S)-quinuclidin-3-yl (7-(isoquinolin-5-yl)chroman-4-yl)carbamate] | 2.14 | 14.1 |
| COc1cc(-c2ccc3c(c2)OCCC3NC(=O)O[C@@H]2CN3CCC2CC3)ccc1Cl (stereo partly drawn) [Example 66, (S)-quinuclidin-3-yl (7-(4-chloro-3-methoxyphenyl)chroman-4-yl)carbamate] | 1.75 | 11.3 |
| CC1(NC(=O)O[C@@H]2CN3CCC2CC3)CCOc2cc(-c3cccc(F)c3)ccc21 (stereo partly drawn) [Example 298, (S)-quinuclidin-3-yl (7-(3-fluorophenyl)-4-methylchroman-4-yl)carbamate] | 0.7 | 5.5 |
| COc1cccc(-c2ccc3c(c2)OCCC3NC(=O)O[C@@H]2CN3CCC2CC3)c1 (stereo partly drawn) [Example 18, (S)-quinuclidin-3-yl (7-(3-methoxyphenyl)chroman-4-yl)carbamate] | 1.54 | 6.98 |
| Cc1cscc1-c1ccc2c(c1)OCCC2(C)NC(=O)O[C@@H]1CN2CCC1CC2 (stereo partly drawn) [Example 311, (S)-quinuclidin-3-yl (4-methyl-7-(4-methylthiophen-3-yl)chroman-4-yl)carbamate] | 0.17 | 0.7 |
| COc1ccc(-c2ccc3c(c2)OCC(C)(C)C3NC(=O)O[C@@H]2CN3CCC2CC3)cn1 (stereo partly drawn) [Example 241, (S)-quinuclidin-3-yl (7-(6-methoxypyridin-3-yl)-3,3-dimethylchroman-4-yl)carbamate] | 0.81 | 24.1 |
| N#Cc1ccc(-c2ccc3c(c2)C(NC(=O)O[C@@H]2CN4CCC2CC4)CCO3)cc1 (stereo partly drawn) [Example 100, (S)-quinuclidin-3-yl (6-(4-cyanophenyl)chroman-4-yl)carbamate] | 7.1 | 289 |
| CC(C)Oc1ccc(-c2ccc3c(c2)OCC(C)(C)C3NC(=O)O[C@@H]2CN3CCC2CC3)cc1F (stereo partly drawn) [Example 261, (S)-quinuclidin-3-yl (7-(3-fluoro-4-isopropoxyphenyl)-3,3-dimethylchroman-4-yl)carbamate] | 0.65 | 2.6 |
| O=C(NC1CCOc2cc(-c3ccc(C4CC4)cc3)ccc21)O[C@@H]1CN2CCC1CC2 (stereo partly drawn) [Example 35, (S)-quinuclidin-3-yl (7-(4-cyclopropylphenyl)chroman-4-yl)carbamate] | 2.77 | 5.44 |
| CC1(C)COc2cc(-c3ccc4nsnc4c3)ccc2C1NC(=O)O[C@@H]1CN2CCC1CC2 (stereo partly drawn) [Example 191, (S)-quinuclidin-3-yl (7-(benzo[c][1,2,5]thiadiazol-5-yl)-3,3-dimethylchroman-4-yl)carbamate] | 0.63 | 0.31 |
| CCOc1c(C)cc(-c2ccc3c(c2)OCC(C)(C)C3NC(=O)O[C@@H]2CN3CCC2CC3)cc1C (stereo partly drawn) [Example 133, (S)-quinuclidin-3-yl (7-(4-ethoxy-3,5-dimethylphenyl)-3,3-dimethylchroman-4-yl)carbamate] | 1.35 | 0.1 |
| O=C(NC1CCOc2ccc(-c3ccccc3OC(F)(F)F)cc21)O[C@@H]1CN2CCC1CC2 (stereo partly drawn) [Example 96, (S)-quinuclidin-3-yl (6-(2-(trifluoromethoxy)phenyl)chroman-4-yl)carbamate] | 8.55 | 78.9 |
| CC1(C)COc2cc(-c3cc(Cl)cc(C(F)(F)F)c3)ccc2C1NC(=O)O[C@@H]1CN2CCC1CC2 (stereo partly drawn) [Example 164, (S)-quinuclidin-3-yl (7-(3-chloro-5-(trifluoromethyl)phenyl)-3,3-dimethylchroman-4-yl)carbamate] | 1.59 | 3.22 |
| CC1(C)COc2cc(-c3ccc(Cl)c(Cl)c3)ccc2C1NC(=O)O[C@@H]1CN2CCC1CC2 (stereo partly drawn) [Example 195, (S)-quinuclidin-3-yl (7-(3,4-dichlorophenyl)-3,3-dimethylchroman-4-yl)carbamate] | 1.14 | 1.39 |
| O=C(NC1CCOc2cc(-c3cc4ccccc4s3)ccc21)O[C@@H]1CN2CCC1CC2 (stereo partly drawn) [Example 42, (S)-quinuclidin-3-yl (7-(benzo[b]thiophen-2-yl)chroman-4-yl)carbamate] | 14 | 34.1 |
| O=C(NC1CCOc2cc(-c3ccc(OC(F)F)cc3)ccc21)O[C@@H]1CN2CCC1CC2 (stereo partly drawn) [Example 32, (S)-quinuclidin-3-yl (7-(4-(difluoromethoxy)phenyl)chroman-4-yl)carbamate] | 3.34 | 48.6 |
| CC1(C)COc2cc(-c3ccccc3F)ccc2C1NC(=O)O[C@@H]1CN2CCC1CC2 (stereo partly drawn) [Example 156, (S)-quinuclidin-3-yl (7-(2-fluorophenyl)-3,3-dimethylchroman-4-yl)carbamate] | 0.29 | 0.27 |
| CCOc1cccc(-c2ccc3c(c2)SCCC3NC(=O)O[C@@H]2CN3CCC2CC3)c1 (stereo partly drawn) [Example 324, (S)-quinuclidin-3-yl (7-(3-ethoxyphenyl)thiochroman-4-yl)carbamate] | 1.25 | 14.4 |
| CC1(C)COc2cc(-c3ccsc3)ccc2C1NC(=O)O[C@@H]1CN2CCC1CC2 (stereo partly drawn) [Example 187, (S)-quinuclidin-3-yl (3,3-dimethyl-7-(thiophen-3-yl)chroman-4-yl)carbamate] | 0.32 | 2.06 |
| O=C(NC1CCOc2cc(C3=CCCO3)ccc21)O[C@@H]1CN2CCC1CC2 (stereo partly drawn) [Example 38, (S)-quinuclidin-3-yl (7-(2,3-dihydrofuran-5-yl)chroman-4-yl)carbamate] | 3.02 | 14.5 |
| CC1(C)COc2cc(-c3ccccc3)ccc2C1NC(=O)O[C@@H]1CN2CCC1CC2 (stereo partly drawn) [Example 264, (S)-quinuclidin-3-yl (3,3-dimethyl-7-phenylchroman-4-yl)carbamate] | 0.35 | 0.7 |
| CCCOc1c(C)cc(-c2ccc3c(c2)OCC(C)(C)C3NC(=O)O[C@@H]2CN3CCC2CC3)cc1C (stereo partly drawn) [Example 140, (S)-quinuclidin-3-yl (7-(3,5-dimethyl-4-propoxyphenyl)-3,3-dimethylchroman-4-yl)carbamate] | 0.88 | 0.15 |
| CC(C)Cc1ccc(-c2ccc3c(c2)OCC(C)(C)C3NC(=O)O[C@@H]2CN3CCC2CC3)cc1 (stereo partly drawn) [Example 257, (S)-quinuclidin-3-yl (7-(4-isobutylphenyl)-3,3-dimethylchroman-4-yl)carbamate] | 0.36 | 0.7 |
